Consider four compounds from patent publication US4029789A, “1-[2'-(α-Furoyl or α-thienoyl)eth-1'-yl]-2-(4"-cinnamyl piperazin-1"-yl methyl)benzimidazoles and method of using same” (Delalande S.A., priority 1974, dated 1977).

Usually mortality stands for the share of the test organisms that died.

In data set [1] the test system is constraint ulcers. The experiment in a line: Constraint ulcers, rat, 7 hours. It is filed as in vivo. Here is the method:
(a) Constraint ulcers: the compounds of formula (I), administered orally, reduce the area of ulcerations caused in a rat placed under constraint. Thus, compound No 73 0466 administered at a dose of 5 mg/kg/po, reduces by 78% the area of the ulcerations caused by being put under constraint for 7 hours.
(§1) .- The anti-ulcerous activity was evaluated by the percentage of protection (quantal response) against ulcers caused in a rat by binding the pylorus or by putting under constraint for 7 hours.
(§2) The products were administered intraduodenally (Shay's ulcer) or orally (constraint ulcer).

For data set [2], the system named is gastric secretion. The experiment in a line: Gastric antisecretory activity, vigil rat, pyloric binding for 4 hours. The settings on record: for ED50: Rattus norvegicus, 4 h, i.d.; for gastric antisecretory properties (in words): comparison with compound No. 7110 / patent No 3 862 177. The format is in vivo. As to the method:
.- The gastric antisecretory activity was studied in a vigil rat fitted with a pyloric binding for 4 hours, according to Shay and al.
It was evaluated by diminutions in the volume, the concentration and the flow of free acid in the gastric juice. The compounds tested were administered intraduodenally.

Data set [3] in a line: Acute toxicity, mouse. The note with it: in vivo.
Data set [4] relates to morphinic respiratory depression. Put plainly: Respiratory analeptic properties, vigil rabbit, morphinic respiratory depression. The format is in vivo. The note with it: for respiratory analeptic activity (in words): i.v., vigil rabbit, comparison with reference compound. Here is the method:
The compounds of formula (I) administered intravenously to a vigil rabbit, are capable of opposing morphinic respiratory depression (subcutaneous injection of 50 mg/kg of morphine hydrochloride).
.- Respiratory analeptic properties were studied in a vigil rabbit subjected to a morphinic respiratory depression. The products studied were administered intravenously.

Data set [5] has as its system Shay's ulcers. Put plainly: Shay's ulcers, rat, binding the pylorus. The format is in vivo. The settings on record: for anti-ulcerous properties (in words): comparison with compound No. 7110 / patent No 3 862 177. Here is the method: (b) Shay's ulcers: the compounds of formula (I) administered intraduodenally reduce the area of ulcerations induce in a rat by binding the pylorus. Thus, compound code No 73 0466 administered in a dose of 20 mg/kg/i.d. reduces by 80 % Shay's ulcer.
as §1, §2

The subject of data set [6] is bronchoconstriction caused by acetylcholine. Put plainly: Anti-bronchoconstriction, anaesthetized guinea-pig, acetylcholine i.v. (Konzett and Rossler). The format is in vivo. The note with it: for ED50: Cavia porcellus, iv, compound i.v., read-out: DE 50 (the source's name); for activity by route of administration: i.v. and i.d.; for anti-bronchoconstriction properties (in words): guinea-pig, comparison with compound of patent No 3 862 177. As to the method:
(§3) Injected intravenously or intraduodenally, the compounds of formula (I) are capable of opposing bronchoconstriction caused in a guinea-pig anaesthetized with ethylurethane at 20 % (1.5 g/kg intraperitoneally) by intravenous injection of histamine ([…]/i.v.), of acetylcholine (40 μg/kg/i.v.), of bradykinine (5 μg/kg/i.v.) or of serotinine (20 μg/kg/i.v.).
(§4) .- The anti-bronchoconstriction properties were studied in an anaesthetized guinea-pig and in a vigil guinea-pig.
(§5) The antagonism exercised by the products studied to a bronchoconstriction due to an intravenous injection of acetylcholine, histamine or bradykinine was evaluated according to Konzett and Rossler's method.
(§6) The products studied were administered intraduodenally or intravenously.

In data set [7] the test system is bronchoconstriction caused by bradykinine. Put plainly: Anti-bronchoconstriction, anaesthetized guinea-pig, bradykinine i.v. (Konzett and Rossler). The format is in vivo. As to the method: as §3, §4, §5, §6
In data set [8] the test system is bronchospasm caused by histamine aerosol. Put plainly: Protection of vigil guinea-pig against histamine aerosol bronchospasm. It is filed as in vivo. Here is the method:
These properties are also observed by administering the compounds of formula (I) orally, to a vigil guinea-pig subjected to a histamine aerosol (exposition for 10 minutes to an aerosol obtained from an aqueous solution containing 0.4 % histamine and 10 % glycerine), the criterium of activity being the total protection from the fall caused by the bronchospasm.

The subject of data set [9] is bronchoconstriction caused by serotonine. The experiment in a line: Anti-bronchoconstriction, anaesthetized guinea-pig, serotonine i.v. The settings on record: Cavia porcellus, iv, compound i.v., read-out: DE 50 (the source's name). It is filed as in vivo. Here is the method: as §3
The subject of data set [10] is spasms in the uterus induced by serotonine. Put plainly: Spasmolytic, uterus of female rat, serotonine. As to the method: (§7) Compound code number 73 0457, introduced into the conserving medium, is capable of opposing the contractural action of histamine and bradykinine on the ileum of a guinea-pig, DI 50 being respectively 0.16 μg/ml and 3.1 μg/ml, prevents spasms in the uterus of a female rat induced by serotonine (DI 50= 0.8 μg/ml) and opposes the contracting effect of acetylcholine on the duodenum of a rat (DI 50= 0.8μg/ml).

Data set [11] deals with contractural action of histamine on the ileum. Put plainly: Spasmolytic, ileum of guinea-pig, histamine. As to the method:
as §7

Data set [12] has as its system bronchospasm caused by acetylcholine aerosol. The experiment in a line: Protection of vigil guinea-pig against acetylcholine aerosol bronchospasm. It is filed as in vivo.
The subject of data set [13] is bronchoconstriction caused by histamine. The experiment in a line: Anti-bronchoconstriction, anaesthetized guinea-pig, histamine i.v. (Konzett and Rossler). The format is in vivo. The note with it: for Percentage of inhibition of the bronchoconstriction: histamine. As to the method:
as §3, §4, §5, §6

The test system of data set [14] is contracting effect of acetylcholine on the duodenum. The experiment in a line: Spasmolytic, duodenum of rat, acetylcholine. As to the method:
as §7

Data set [15] concerns contractural action of bradykinine on the ileum. Put plainly: Spasmolytic, ileum of guinea-pig, bradykinine. Here is the method:
as §7

Data set [16] deals with gastric secretion. Put plainly: Gastric antisecretory properties, anaesthetized rat with Shay binding. The note with it: 2 mg/kg i.d. The format is in vivo. An excerpt: The compounds of formula (I), administered intraduodenally to an anaesthetized rat provided with a Shay binding are capable of reducing the gastric secretion.
[17] abbreviates: read-out: Gastric antisecretory action, Volume, D.E. 50.
Where [18] appears, read: acetylcholine, anaesthetized guinea-pig.
The mark [19] stands for this setting: po, 2000 mg/kg, p.o., 2 000 mg/kg, read-out: Percentage mortality, orally.
The mark [20] stands for this setting: acetylcholine i.v., 25 mg/kg i.d.

“Also recorded” adds a separate entry of the source. Where two headings read alike, the source gives them in different places. Where only a bound is given, the exact number is not on record here.

As to `O=C(CCn1c(CN2CCN(CC=Cc3ccccc3)CC2)nc2ccccc21)c1ccccc1` [7 110, reference compound], the ED50 was determined as 4.2 mg/kg in data set [1] (Rattus norvegicus, po, 7 h, p.o., read-out: Anti-ulcerous action, Constraint ulcer for 7 hours, D.E. 50); 2.5 mg/kg in data set [2] (setting [17]); 28.5 mg/kg in data set [5] (Rattus norvegicus, i.d., read-out: Anti-ulcerous action, Shay's ulcer, D.E. 50); 2.4 mg/kg in data set [6] (acetylcholine i.v.); 30 mg/kg in data set [7] (Cavia porcellus, bradykinine i.v., compound i.d., read-out: D.E. 50 (the source's name)). Further, the mortality in data set [3] (po, 4800 mg/kg, p.o., 4 800 mg/kg, read-out: Acute toxicity (p.o.), percentage mortality) worked out at 30%. In addition, in data set [4] (4 mg/kg i.v.), the Duration of effect is given as 0 min. Besides, the “Percentage increase, respiratory amplitude” value in data set [4] (4 mg/kg i.v.) was found to be 0%. Moreover, the “Percentage increase, respiratory frequency” value in data set [4] (4 mg/kg i.v.) is recorded as 0%. In [6] (acetylcholine i.v., 30 mg/kg i.d.), this compound displayed an Anti-bronchoconstriction action of 0. Further, in data set [6] (setting [18]), the “activity by route of administration” value is recorded as “acts solely intravenously”.

In the case of `O=C(CCn1c(CN2CCN(CC=Cc3ccccc3)CC2)nc2ccccc21)c1ccco1` [73 0457, dimaleate of 1-[2'-(α-furoyl)eth-1' yl]-2-(4"-cinnamylpiperazin 1" ylmethyl) benzimidazole], the “percentage of animals totally protected” value in data set [8] (1.56 mg/kg p.o.) and in data set [12] (12.5 mg/kg p.o.) was 50% each time. For the same compound, the Duration was above 6 h in data set [8] (100 mg/kg p.o.); above 90 min in [6] (acetylcholine, 12.5 mg/kg i.d., Table I); above 90 min in [6] (acetylcholine, 12.5 mg/kg i.d., Table IV). The “Percentage of inhibition of the bronchoconstriction” value in data set [8] (100 mg/kg p.o.) turned out to be 100%; in [13] (12.5 mg/kg i.d.), 100%; in [6] (acetylcholine, 12.5 mg/kg i.d.) it was 70%; in data set [7] (bradykinine, 8 mg/kg i.v.), 75%. Moreover, the ED50 in data set [9] is below 4 mg/kg; in data set [2] (read-out: Gastric antisecretory action, Free acid concentration, D.E. 50) it was 55 mg/kg; in [2] (read-out: Gastric antisecretory action, Free acid flow, D.E. 50), 15 mg/kg; in data set [2] (setting [17]) it was 11.5 mg/kg; in data set [6] (acetylcholine i.v.), below 4 mg/kg. The “DI 50” value was 0.8 µg/mL in data set [10], 0.16 µg/mL in data set [11], 0.8 µg/mL in data set [14] and 3.1 µg/mL in [15]. Moreover, the “gastric antisecretory properties (in words)” value in data set [2] is “lower gastric antisecretory and anti-ulcerous activities”. In addition, the mortality was around 50% in data set [3] (iv, 48 mg/kg, i.v., at 48 ± 2.5 mg/kg, read-out: Percentage mortality, intravenously) and 0% in data set [3] (setting [19]). The LD50 in data set [3] (iv, read-out: Dose administered (mouse), intravenously, DE 50) is 48 ± 2.5 mg/kg. In data set [4] (10 mg/kg i.v.), this compound had a Duration of effect of 25 min. For the same compound, the “respiratory analeptic activity (in words)” value in data set [4] was “considerable respiratory analeptic activity; also recorded: considerable anti-bronchoconstriction and respiratory analeptic properties”. Moreover, the “Anti-ulcerous action, Shay's ulcer (percentage of protection, quantal response)” value in data set [5] (50 mg/kg i.d.) was 0. In [5], the “anti-ulcerous properties (in words)” value was “lower gastric antisecretory and anti-ulcerous activities”. For the same compound, the “Anti-bronchoconstriction action, percentage” value in [6] (acetylcholine i.v., 0.0625 mg/kg i.v.) came out at 63%. For the same compound, the “times lower active dose than that of compound No. 7110” value in data set [6] (setting [18]) is on record as 38 times. Moreover, the “activity by route of administration” value in data set [6] (setting [18]) is “active in this same test, not only when administered intravenously but intraduodenally”. In data set [6], the “anti-bronchoconstriction properties (in words)” value is “considerable anti-bronchoconstriction and respiratory analeptic properties”.

Turning to `O=C(CCn1c(CN2CCN(CC=Cc3ccccc3)CC2)nc2ccccc21)c1cccs1` [73 0466, dimaleate of 1-[2'(α -thienoyl)eth-1'yl]-2-(4"-cinnamylpiperazin 1"ylmethyl)benzimidazole], the “percentage of animals totally protected” value in data set [8] (50 mg/kg p.o.) is 67%. Besides, the “reduction of the area of the ulcerations” value in data set [1] (5 mg/kg p.o., constraint for 7 hours) is 78%. Moreover, in [16], the “reduction of the volume of the gastric secretion” value was found to be 28%. In addition, the “Gastric antisecretory action, Free acid concentration” value in data set [2] (2 mg/kg i.d.) is “inactive”. Besides, the “gastric antisecretory properties (in words)” value in [2] was “lower gastric antisecretory and anti-ulcerous activities”. Moreover, the “percentage of animals totally protected” value in data set [12] (50 mg/kg p.o.) was determined as 100%. Also, in [13] (Cavia porcellus, histamine i.v., compound i.d., read-out: D.E. 50 (the source's name)), the ED50 amounted to 25 mg/kg. Moreover, in [13] (25 mg/kg i.d.), the “Percentage of inhibition of the bronchoconstriction” value was found to be 50%. Besides, in [3] (setting [19]), the mortality is 30%. The “respiratory analeptic activity (in words)” value in data set [4] is “considerable anti-bronchoconstriction and respiratory analeptic properties”. Moreover, the “reduction of Shay's ulcer (area of ulcerations)” value in [5] (20 mg/kg i.d.) was found to be 80%. Besides, in data set [5], the “anti-ulcerous properties (in words)” value was “lower gastric antisecretory and anti-ulcerous activities”. Moreover, in data set [6] (setting [20]), the “Anti-bronchoconstriction action, percentage” value is reported as 95% and the “Duration of anti-bronchoconstriction action” value is above 30 min. In [6] (acetylcholine, 100 mg/kg i.d.), the Duration was found to be 60 min and the “Percentage of inhibition of the bronchoconstriction” value came to 100%. Further, the “activity by route of administration” value in data set [6] (setting [18]) is “active in this same test, not only when administered intravenously but intraduodenally”. In [6], the “anti-bronchoconstriction properties (in words)” value was “considerable anti-bronchoconstriction and respiratory analeptic properties”.

For the compound “prethcamide [MICORENE, reference compound]”, the Duration of effect in data set [4] (10 mg/kg i.v.) was 7 min.
